Data taken from patent publication US9849127B2, “Means and methods for treating cancer” (Medizinische Hochschule Hannover, priority 2013, dated 2017).

Columns and labels:
[1] = tested on: HoxA9 immortalized bone marrow cells expressing IDH1R132C; test: Survival of mice transplanted with HoxA9 immortalized IDH1R132C bone marrow cells; format: in vivo; details: 1 mg/mouse 5 days/week starting 5 days after transplantation, versus PBS; follow-up ongoing
Experimental: FIG. 5: Survival of mice treated with HMS-101.
HoxA9 immortalized bone marrow cells from C57BL/6J mice were transduced with retroviral vectors expressing IDH1R132C and GFP. One million GFP-expressing sorted cells were injected intravenously in lethally-irradiated syngeneic recipient mice, accompanied by a life-sparing dose of 1×10^5 freshly isolated bone marrow cells from syngeneic mice. One cohort of mice was treated with HMS-101 at a dose of 1 mg/mouse for 5 days/week starting 5 days after transplantation. The control cohort was treated with PBS for 5 days/week starting 5 days after transplantation. The solid line represents the survival of PBS-treated mice, the dotted line represents the survival of HMS-101-treated mice. Follow-up and treatment are ongoing.

[2] = tested on: primary human AML cells harboring the IDH1 mutation; test: Rate of apoptosis of primary human AML cells; format: cell-based; details: IDH1-mutated primary human AML cells compared to AML cells with wildtype IDH1 and CD34+ cells from healthy donors
Source text: FIG. 4: Rate of apoptosis of primary human AML cells with and without IDH1 mutation treated with solvent control (DMSO) or compound HMS-101. Human CD34^+ hematopoietic stem and progenitor cells from healthy donors were used as controls.

IDH1 mutant enzyme = test: Intracellular 2HG levels in IDH1mutant cells (neomorphic activity); format: cell-based; details: 72 hours, 10 μM, versus control treated cells
Source text: FIG. 2: D-2HG levels from IDH1mut cells treated with compound HMS-101 (drug) or solvent control.

[3] = tested on: primary human AML cells harboring the IDH1 mutation; test: Colony forming assay of primary human AML cells; format: cell-based; details: IDH1-mutated primary human AML cells compared to AML cells with wildtype IDH1 and CD34+ cells from healthy donors
Source text: FIG. 3: Colony forming assay of primary human AML cells with and without IDH1 mutation treated with solvent control (DMSO) or compound HMS-101. Human CD34^+ hematopoietic stem and progenitor cells from healthy donors were used as controls.

IDH1wt cells = test: Alamar blue cell viability assay, IDH1wt cells; format: cell-based; details: IDH1wt cells in vitro, treated for 72 hours
Experimental: (§1) FIG. 1: IC50 values for IDH1wt and IDH1mut treated with compound HMS-101 for 72 hours.

[4] = Toxicity testing in animals; format: in vivo; details: mice, 1 mg intraperitoneally daily for two weeks
Experimental: The compound described herein has been given to mice at a dose of 1 mg intraperitoneally daily for two weeks.

[5] = tested on: R-2-hydroxyglutarate (R-2HG); test: Ratio R-2HG/S-2HG in serum of treated mice; format: in vivo; details: treated mice versus PBS, 9 weeks after treatment, pooled serum
Source text: FIG. 6: Ratio of R-2-hydroxyglutarate (R-2HG) to S-2-hydroxyglutarate (S-2HG) in serum from mice treated with HMS-101 or solvent control (PBS) at 9 weeks after treatment. Serum from 3 mice were pooled per indicated measurement (9 mice for PBS, 12 mice for HMS-101).
2-hydroxyglutarate (R-2HG), in particular elevated values thereof, typically measured in terms of the ratio between R- and S-form (R-2HG/S-2HG) is a marker for leukemia in accordance with the present invention. […] This establishes both the usefulness of the mentioned ratio as a marker for leukemia and the beneficial effects of HMS-101.

IDH1mut cancer cells = test: Alamar blue cell viability assay, IDH1mut cells; format: cell-based
Experimental: as §1

## CN1CCN(C)[C@H](CCN2CC[C@H](c3ccc(F)cc3)C2)C1 [HMS-101]
[1]
  survival: survival benefit
[2]
  rate of apoptosis: increased the rate of apoptosis
IDH1 mutant enzyme
  intracellular 2HG levels (D-2HG): dramatically reduced
[3]
  colony forming potential: reduced the colony forming potential
IDH1wt cells
  IC50: 12 µM
[4]
  tolerability / visible signs of toxicity: well tolerated by the animals with no visible signs of toxicity
[5]
  ratio R-2HG/S-2HG in serum: decrease of the ratio R-2HG/S-2HG
IDH1mut cancer cells; 72 hours
  IC50 on IDH1wt cells relative to IDH1mut cells: 12 times
IDH1mut cancer cells; IDH1mut cancer cells in vitro, treated for 72 hours
  IC50: 1 µM
